Assay results from US20230255970A1, “COMPOSITIONS AND METHODS FOR TREATING PROLIFERATIVE DISEASES” (The Broad Institute, Inc., priority 2020, published 2023).

How the values were obtained:
Assay type in all cases: cell-based, human
[1] = tested on: YAP1 overexpression in U2OS cells; assay: Cell Painting morphological profile matching to YAP1/TAZ overexpression signature; settings: Pearson correlation of Cell Painting signatures, U2OS cells
From the text: (§1) Of these, analysis of the 220 constructs that were most closely representative of the annotated full-length transcripts was prioritized. […] Not all genes are likely to impact cellular morphology given the limitation of the experiment; using a single cell line at a single time point under a single set of conditions and stained with six fluorescent labels.
FIG. 2 provides an example characterization of matching the morphological signature of a gene query to the signature(s) of compounds in a library. Connections which show both positive and negative large correlations are considered as matches.
(§2) This standardization was done plate wise, based on the mean and standard deviation of the controls at profile level for the compound dataset. […] The signatures were then obtained by averaging the replicate profiles feature-wise. Pearson correlation was used on the aligned signatures of a gene and compound to score their connection.

[2] = tested on: TRAF2 overexpression in U2OS cells; assay: Cell Painting morphological profile matching to TRAF2 overexpression; settings: Pearson correlation of Cell Painting signatures, U2OS cells
From the text: as §1, §2

U2OS cells = assay: Cell count in U2OS Cell Painting images; settings: U2OS Cell Painting
From the text: as §1, §2

Row | Structure (SMILES) | Corr. to YAP1 cluster [1] | Corr. to TRAF2 [2] | Avg. Cell Count z-score (U2OS cells)
1 | N#Cc1nn(-c2c(Cl)cc(C(F)(F)F)cc2Cl)c(N)c1[S+]([O-])C(F)(F)F (stereo not drawn) [BRD-A50675702, 5-amino-1-[2,6-dichloro-4-(trifluoromethyl)phenyl]-4-(trifluoromethane)sulfinyl-1H-pyrazole-3-carbonitrile] | 0.5102 | −0.4752 | −0.1188
2 | Cc1ccc(S(=O)(=O)NC(=O)NN2CC3CCCC3C2)cc1 (stereo not drawn) [BRD-A61154809, 1-(3,3a,4,5,6,6a-hexahydro-1H-cyclopenta[c]pyrrol-2-yl)-3-(4-methylphenyl)sulfonylurea] | 0.4401 | −0.3313 | 0.8203
3 | CNC[C@@H]1Oc2c(NS(=O)(=O)c3ccc(F)cc3)cccc2C(=O)N([C@H](C)CO)C[C@H]1C [BRD-K00135177, 4-fluoro-N-[(2R,3R)-5-[(2R)-1-hydroxypropan-2-yl]-3-methyl-2-(methylaminomethyl)-6-oxo-3,4-dihydro-2H-1,5-benzoxazocin-10-yl]benzenesulfonamide] | 0.5004 | −0.3649 | 0.4009
4 | CN1c2cc3c(cc2N=C(c2ccc(C(=O)O)cc2)c2ccccc21)C(C)(C)CCC3(C)C [BRD-K06593056, 4-(5,7,7,10,10-pentamethyl-8,9-dihydronaphtho[2,3-b][1,4]benzodiazepin-13-yl)benzoic acid] | 0.4357 | −0.4512 | −0.7909
5 | O=C(C[C@H]1CC[C@H](NC(=O)CCN2CCCCC2)[C@@H](CO)O1)Nc1nccs1 [BRD-K11266478, N-[(2S,3S,6R)-2-(hydroxymethyl)-6-[2-oxo-2-(1,3-thiazol-2-ylamino)ethyl]oxan-3-yl]-3-piperidin-1-ylpropanamide] | 0.4988 | −0.4398 | 0.4851
6 | Clc1nc(NCc2ccccc2)c2ccccc2n1 [BRD-K11758216, N-benzyl-2-chloroquinazolin-4-amine] | 0.5078 | −0.4406 | −1.202
7 | C[C@H](CO)N1C[C@H](C)[C@H](CN(C)C)Oc2cc(C#Cc3ccccn3)ccc2S1(=O)=O [BRD-K13719685, (4S,5R)-5-((dimethylamino)methyl)-2-((R)-1-hydroxypropan-2-yl)-4-methyl-8-(pyridin-2-ylethynyl)-2,3,4,5-tetrahydrobenzo[b][1,4,5]oxathiazocine 1,1-dioxide] | −0.4426 | 0.3591 | 2.104
8 | COc1ccc(Cc2nccc3cc(OC)c(OC)cc23)cc1OC [BRD-K15567136, 1-[(3,4-dimethoxyphenyl)methyl]-6,7-dimethoxyisoquinoline] | 0.4464 | −0.4936 | −0.6568
9 | C[C@H]1CN([C@@H](C)CO)C(=O)CCCn2nncc2CO[C@H]1CN(C)C(=O)Nc1cccc(Oc2ccccn2)c1 [BRD-K19969618, 1-[[(8S,9R)-6-[(2S)-1-hydroxypropan-2-yl]-8-methyl-5-oxo-10-oxa-1,6,14,15-tetrazabicyclo[10.3.0]pentadeca-12,14-dien-9-yl]methyl]-1-methyl-3-(3-pyridin-2-yloxyphenyl)urea] | 0.5483 | −0.4667 | 0.7797
10 | CCCC(=O)Nc1ccc2c(c1)C(=O)N(C)C[C@H](OC)[C@H](C)CN(Cc1ccccc1)[C@@H](C)CO2 [BRD-K22754756, N-[(4S,7R,8R)-8-methoxy-4,7,10-trimethyl-11-oxo-5-(phenylmethyl)-2-oxa-5,10-diazabicyclo[10.4.0]hexadeca-1(12),13,15-trien-14-yl]butanamide] | 0.4966 | −0.297 | −1.409
11 | CO[C@H]1CN(C)C(=O)c2cc(NC(=O)C3CCCCC3)ccc2OC[C@@H](C)N(Cc2nccs2)C[C@@H]1C [BRD-K22874335, N-[(4R,7S,8R)-8-methoxy-4,7,10-trimethyl-11-oxo-5-(1,3-thiazol-2-ylmethyl)-2-oxa-5,10-diazabicyclo[10.4.0]hexadeca-1(12),13,15-trien-14-yl]cyclohexanecarboxamide] | 0.4904 | −0.362 | −1.704
12 | O=C(C[C@@H]1C[C@H]2c3cc(NC(=O)C4CCC4)ccc3O[C@H]2[C@H](CO)O1)NCc1ccccn1 [BRD-K28043081, N-[(1S,3S,4aS,9aR)-1-(hydroxymethyl)-3-[2-oxo-2-(pyridin-2-ylmethylamino)ethyl]-3,4,4a,9a-tetrahydro-1H-pyrano[3,4-b][1]benzofuran-6-yl]cyclobutanecarboxamide] | 0.527 | −0.406 | −0.5533
13 | O=C(NCC1CC1)[C@@H]1N[C@@H]2c3ccc(C4=CCCCC4)c(=O)n3C[C@@H]2[C@H]1CO [BRD-K37451830, (2R,3R,3aS,9bS)-7-(1-cyclohexenyl)-N-(cyclopropylmethyl)-3-(hydroxymethyl)-6-oxo-1,2,3,3a,4,9b-hexahydropyrrolo[2,3-a]indolizine-2-carboxamide] | 0.4802 | −0.4167 | −0.0043
14 | CCCNC(=O)N1[C@@H]2c3ccc(-c4ccccc4OC)c(=O)n3C[C@H]1[C@H](CO)[C@H]2C(=O)NCC [BRD-K39839146, (1S,9R,10R,11R)-11-N-ethyl-10-(hydroxymethyl)-5-(2-methoxyphenyl)-6-oxo-12-N-propyl-7,12-diazatricyclo[7.2.1.02,7]dodeca-2,4-diene-11,12-dicarboxamide] | 0.4835 | −0.4284 | 0.2185
15 | O=C(C[C@H]1C=C[C@@H](NC(=O)Nc2cc(F)ccc2F)[C@H](CO)O1)NCCCN1CCOCC1 [BRD-K40143134, 2-[(2R,3R,6S)-3-[[(2,5-difluoroanilino)-oxomethyl]amino]-2-(hydroxymethyl)-3,6-dihydro-2H-pyran-6-yl]-N-[3-(4-morpholinyl)propyl]acetamide] | 0.5009 | −0.3428 | −0.1148
16 | O=C(C[C@H]1CC[C@@H]2[C@H](COC[C@@H](O)CN2Cc2ccc3c(c2)OCO3)O1)N1CCCCC1 [BRD-K41723088, 2-[(3S,6aR,8R,10aR)-1-(1,3-benzodioxol-5-ylmethyl)-3-hydroxy-3,4,6,6a,8,9,10,10a-octahydro-2H-pyrano[2,3-c][1,5]oxazocin-8-yl]-1-piperidin-1-ylethanone] | 0.4916 | −0.4389 | −0.07095
17 | O=c1c(-c2ccc(O)cc2)coc2cc(O)ccc12 [BRD-K42095107, 7-hydroxy-3-(4-hydroxyphenyl)chromen-4-one] | 0.4583 | −0.372 | −0.8813
18 | CO[C@@H]1CN(C)C(=O)c2ccc(NC(=O)c3ccccc3F)cc2OC[C@H](C)N(CC2CC2)C[C@@H]1C [BRD-K42367391, N-[(5S,6S,9S)-8-(cyclopropylmethyl)-5-methoxy-3,6,9-trimethyl-2-oxo-11-oxa-3,8-diazabicyclo[10.4.0]hexadeca-1(12),13,15-trien-14-yl]-2-fluorobenzamide] | 0.4887 | −0.2728 | −0.9374
19 | O=C(Nc1ccncc1)Nc1c(Cl)cc(Cl)cc1Cl [BRD-K46678324, 1-pyridin-4-yl-3-(2,4,6-trichlorophenyl)urea] | 0.4284 | −0.3397 | −0.7252
20 | O=C(N[C@H]1CC[C@@H](CCNS(=O)(=O)c2ccc(F)cc2)O[C@H]1CO)C1CCOCC1 [BRD-K48052543, N-[(2R,3S,6S)-6-[2-[(4-fluorophenyl)sulfonylamino]ethyl]-2-(hydroxymethyl)oxan-3-yl]oxane-4-carboxamide] | 0.5099 | −0.4132 | 0.09801
21 | O=C(Nc1ccc2c(c1)[C@H]1C[C@@H](CC(=O)N3CCCCC3)O[C@@H](CO)[C@H]1O2)C1CCOCC1 [BRD-K62768599, N-[(1S,3S,4aR,9aS)-1-(hydroxymethyl)-3-[2-oxo-2-(1-piperidinyl)ethyl]-3,4,4a,9a-tetrahydro-1H-pyrano[3,4-b]benzofuran-6-yl]-4-oxanecarboxamide] | 0.4883 | −0.5272 | −0.7392
22 | COC(=O)C[C@H]1C[C@H]2c3cc(NS(=O)(=O)c4cccc(OC)c4)ccc3O[C@H]2[C@@H](CO)O1 [BRD-K68530167, 2-[(1R,3R,4aS,9aR)-1-(hydroxymethyl)-6-[(3-methoxyphenyl)sulfonylamino]-3,4,4a,9a-tetrahydro-1H-pyrano[3,4-b]benzofuran-3-yl]acetic acid methyl ester] | 0.494 | −0.4619 | −0.1411
23 | COc1cccc(S(=O)(=O)N2C[C@H](O)COC[C@@H]3O[C@H](CC(=O)N4CCN(c5ccccc5)CC4)CC[C@H]32)c1 [BRD-K70003473, 2-[(3S,6aR,8S,10aR)-3-hydroxy-1-(3-methoxyphenyl)sulfonyl-3,4,6,6a,8,9,10,10a-octahydro-2H-pyrano[2,3-c][1,5]oxazocin-8-yl]-1-(4-phenyl-1-piperazinyl)ethanone] | −0.4195 | 0.3099 | 0.5728
